Test results reported in BindingDB's records for patent US20250034135 (Hangzhou Healzen Therapeutics Co., 2025).

Assays:
[1] = target: Apoptosis regulator Bcl-2 (Homo sapiens, UniProt P10415); experiment: Molecular Level Activity Test of Anti-Apoptotic Protein BCL2
Procedure: (§1) The detection of the binding ability between anti-apoptotic protein BCL2 and pro-apoptotic protein Bim was performed using Homogeneous Time-Resolved Fluorescence technology. The reaction of this method occurred in a white shallow 384-well plate, with a total reaction volume of 10 μL. Specifically, it included 2 μL of the compound to be tested (2% DMSO), 4 μL His-tagged recombinant protein, and 4 μL Biotin-tagged BIM protein peptide. After 1 hour of reaction, 5 μL of each Anti-His and streptavidin-tagged XL665 antibody diluents diluted with a detection buffer were added. After incubating at room temperature for 4 hours, the values were read using the Envision multifunctional microplate reader to detect the effect of the compound to be tested on the binding ability of BCL2 to Bim protein peptides. The Envision parameter settings were exciting light at 320 nm, and emitting light at 615 nm and 665 nm. The binding ability of anti-apoptotic proteins to Bim protein peptides was indirectly reflected by the signal ratio of 665 nm and 615 nm. In the reaction, background wells without BCL2 and active wells for full binding of recombinant proteins without compounds and Bim protein peptides were set up.

[2] = target: Apoptosis regulator Bcl-2 [G101V] (Homo sapiens, UniProt P10415, G101V); experiment: Molecular Level Activity Test of Anti-Apoptotic Protein BCL2 (G101V)
Procedure: as §1, with “protein BCL2 (G101V) and pro-apoptotic” for “protein BCL2 and pro-apoptotic”, “reaction, 5 L of each” for “reaction, 5 μL of each”, “of BCL2 (G101V) to BIM” for “of BCL2 to Bim”, “(G101V) to BIM protein peptides.” for “BCL2 to Bim protein peptides.”

[3] = target: Isoform Bcl-X(L) of Bcl-2-like protein 1 (Bcl-xL) (Homo sapiens, UniProt Q07817); experiment: BCL-XL Enzyme Molecular Level Activity Test
Procedure: as §1, with “In a white” for “The detection of the binding ability between anti-apoptotic protein BCL2 and pro-apoptotic protein Bim was performed using Homogeneous Time-Resolved Fluorescence technology. The reaction of this method occurred in a white”, “384-well plate, a total” for “384-well plate, with a total”, “reaction volume was 10 μL.” for “reaction volume of 10 μL.”, “DMSO), […] His-tagged recombinant” for “DMSO), 4 μL His-tagged recombinant”, “ability of BCL-XL to BIM” for “ability of BCL2 to Bim”, “BCL-XL to BIM protein peptides.” for “BCL2 to Bim protein peptides.”

CYP3A4 = CYP3A4 (Homo sapiens, UniProt P08684); experiment: CYP3A4 Enzyme Inhibitory Activity; settings: recombinant CYP3A4 (CYP450 BACULOSOMES Plus reagent), probe Vivid substrate (Vivid CYP3A4 Green kit)
CYP3A4, sequence (P08684 whole entry): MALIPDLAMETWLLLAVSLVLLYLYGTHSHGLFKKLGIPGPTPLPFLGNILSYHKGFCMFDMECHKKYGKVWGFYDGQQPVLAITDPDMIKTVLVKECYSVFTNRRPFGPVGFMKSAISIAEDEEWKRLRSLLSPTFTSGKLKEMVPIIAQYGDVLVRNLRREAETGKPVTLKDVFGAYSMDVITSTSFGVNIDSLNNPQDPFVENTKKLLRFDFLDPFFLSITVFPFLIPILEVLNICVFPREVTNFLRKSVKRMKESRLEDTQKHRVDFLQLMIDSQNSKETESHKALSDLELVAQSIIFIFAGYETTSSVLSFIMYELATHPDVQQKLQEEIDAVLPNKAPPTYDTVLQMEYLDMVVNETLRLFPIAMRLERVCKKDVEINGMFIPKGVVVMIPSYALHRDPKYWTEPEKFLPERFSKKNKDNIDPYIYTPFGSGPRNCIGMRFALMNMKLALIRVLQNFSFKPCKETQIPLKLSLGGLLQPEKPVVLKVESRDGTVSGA
Procedure: The inhibitory activity of compounds on human CYP3A4 enzyme was detected using a VIVID™ CYP3A4 GREEN SCRNING KIT reagent kit. The Vivid™ CYP450 screening kit includes a Vivid™ substrate, Vivid™ fluorescence standard, reaction buffer, Vivid™ regeneration system, NADP+ and CYP450 BACULOSOMES™ Plus reagent. Operations were performed following the instructions, and a blank control group was set up without adding any compounds.

Isoform Bcl-X(L) of Bcl-2-like protein 1 (Bcl-xL), sequence (Q07817 whole entry G70A, canonical isoform): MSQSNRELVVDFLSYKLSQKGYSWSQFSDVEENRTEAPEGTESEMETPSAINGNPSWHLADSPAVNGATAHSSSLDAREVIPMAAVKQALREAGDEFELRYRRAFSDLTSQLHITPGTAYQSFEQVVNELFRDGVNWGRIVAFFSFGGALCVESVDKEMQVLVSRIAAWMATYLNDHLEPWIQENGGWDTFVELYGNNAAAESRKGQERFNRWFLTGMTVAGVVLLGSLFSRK

Row | IC50 [1] | IC50 [3] | Compound | other results
1 | < 10 nM |  | CC(C)c1ccccc1[C@@H]1CCCN1C1CC2(CCN(c3ccc(C(=O)NS(=O)(=O)c4cc([N+](=O)[O-])c(NCC5(F)CCN(C(C)C)CC5)c5c4ncn5C)c(Oc4cnc5[nH]ccc5c4)c3)CC2)C1 [US20250034135, Compound 008] | 
2 | < 10 nM |  | CC(C)c1ccccc1[C@@H]1CCCN1C1CC2(CCN(c3ccc(C(=O)NS(=O)(=O)c4cc([N+](=O)[O-])c(NCC5(F)CCN(C6COC6)CC5)c5[nH]cnc45)c(Oc4cnc5[nH]cc(F)c5c4)c3)CC2)C1 [US20250034135, Compound 012] | 
3 | < 10 nM |  | CC(C)c1ccccc1[C@@H]1CCCN1C1CC2(CCN(c3cc(Oc4cnc5[nH]ccc5c4)c(C(=O)NS(=O)(=O)c4cc([N+](=O)[O-])c(NCC5(F)CCN(C6COC6)CC5)c5[nH]cnc45)cc3F)CC2)C1 [US20250034135, Compound 020] | 
4 | < 10 nM |  | CC(C)c1ccccc1[C@@H]1CCCN1C1CC2(CCN(c3cc(Oc4cnc5[nH]ccc5c4)c(C(=O)NS(=O)(=O)c4cc([N+](=O)[O-])c(NCC5(F)CCN(C6COC6)CC5)c5c4ncn5C)cc3F)CC2)C1 [US20250034135, Compound 036] | 
5 | < 10 nM |  | CC(C)c1ccccc1[C@@H]1CCCN1C1CC2(CCN(c3cc(Oc4cnc5[nH]cc(F)c5c4)c(C(=O)NS(=O)(=O)c4cc([N+](=O)[O-])c(NCC5(F)CCN(C6COC6)CC5)c5[nH]cnc45)cc3F)CC2)C1 [US20250034135, Compound 038] | 
6 | < 10 nM |  | COc1ccc(CN2CCN(C3CC4(CCN(c5cc(Oc6cnc7[nH]ccc7c6)c(C(=O)NS(=O)(=O)c6ccc(NCC7(F)CCN(C8COC8)CC7)c([N+](=O)[O-])c6)cc5F)CC4)C3)C(c3ccccc3C(C)C)C2)cc1 (stereo unspecified) [US20250034135, Compound 057] | 
7 |  | > 1000 nM | COc1ccc(CN2CCN(C3CC4(C3)CN(c3cc(Oc5cnc6[nH]ccc6c5)c(C(=O)NS(=O)(=O)c5ccc(NCC6(F)CCN(C7COC7)CC6)c([N+](=O)[O-])c5)cc3F)C4)C(c3ccccc3C(C)C)C2)cc1 (stereo unspecified) [US20250034135, Compound 058] | IC50 [2]: < 10 nM
8 | < 10 nM | > 500 nM | COc1ccccc1CN1CCN(C2CC3(CCN(c4cc(Oc5cnc6[nH]ccc6c5)c(C(=O)NS(=O)(=O)c5ccc(NCC6(F)CCOCC6)c([N+](=O)[O-])c5)cc4F)CC3)C2)[C@H](c2ccccc2C(C)C)C1 [US20250034135, Compound 185] | 
9 | < 10 nM | > 500 nM | CC(C)c1ccccc1[C@@H]1CN(Cc2ccccc2F)CCN1C1CC2(CCN(c3cc(Oc4cnc5[nH]ccc5c4)c(C(=O)NS(=O)(=O)c4ccc(NCC5(F)CCOCC5)c([N+](=O)[O-])c4)cc3F)CC2)C1 [US20250034135, Compound 187] | 
10 | < 10 nM |  | CC(C)c1ccccc1[C@@H]1CN(Cc2ccc(F)cc2F)CCN1C1CC2(CCN(c3cc(Oc4cnc5[nH]ccc5c4)c(C(=O)NS(=O)(=O)c4ccc(NCC5(F)CCOCC5)c([N+](=O)[O-])c4)cc3F)CC2)C1 [US20250034135, Compound 191] | 
11 | < 10 nM |  | CC(C)c1ccccc1[C@@H]1CN(Cc2c(F)cccc2F)CCN1C1CC2(CCN(c3cc(Oc4cnc5[nH]ccc5c4)c(C(=O)NS(=O)(=O)c4ccc(NCC5(F)CCOCC5)c([N+](=O)[O-])c4)cc3F)CC2)C1 [US20250034135, Compound 192] | 
12 |  | > 500 nM | CC(C)c1ccccc1[C@@H]1CN(Cc2cnn(C)c2)CCN1C1CC2(CCN(c3cc(Oc4cnc5[nH]ccc5c4)c(C(=O)NS(=O)(=O)c4ccc(NC[C@H]5CC[C@](C)(O)CC5)c([N+](=O)[O-])c4)cc3F)CC2)C1 [US20250034135, Compound 238] | 
13 |  |  | COc1ccc(CN2CCN(C3CC4(CCN(c5ccc(C(=O)NS(=O)(=O)c6ccc(NC[C@H]7CC[C@](C)(O)CC7)c([N+](=O)[O-])c6)c(OC(C=N)Cc6cc[nH]c6)c5)CC4)C3)[C@H](c3ccccc3C(C)C)C2)cc1 (stereo partly specified) [US20250034135, Compound a] | IC50 (CYP3A4): 2550 nM
